In brackets after ≈: the same amount, converted by molar mass. Like-named read-outs stand apart in the source and are kept apart here.
Tests used:
Assay type in all cases: cell-based
[1] = system: E. coli W3110; assay: microbe, parasite or virus in culture; details: for MIC: Escherichia coli, W3110, 22 h, read-out: MIC E. coli W3110
[2] = system: E. coli W3110RL; assay: microbe, parasite or virus in culture; details: for MIC E. coli W3110RL: E. coli with lpxC of R. leguminosarum, 22 hours at 37° C., MTT; for MIC: Escherichia coli, W3110RL, 22 h, read-out: MIC E. coli W3110RL
[3] = system: P. aeruginosa (PAO1); assay: MIC, P. aeruginosa; details: for MIC: Pseudomonas aeruginosa, read-out: MIC P. aeruginosa (PAO1)
[4] = system: E. coli W3110PA; assay: microbe, parasite or virus in culture; details: for MIC E. coli W3110PA: E. coli with lpxC of P. aeruginosa, 22 hours at 37° C., MTT; for MIC: Escherichia coli, W3110PA, 22 h, read-out: MIC E. coli W3110PA
[5] = system: Acinetobacter Baumannii antibiotic susceptible strain (Sus. A.b. Isolate); assay: Disk diffusion assay, antibiotic susceptible strain; set-up: key to diameter of the growth inhibition, Sus. A.b. Isolate: A: no detectable inhibition; B: 6-10 mm; C: 11-15 mm; D: ≧16; details: 2 μg of compound per disc, disc 6 mm in diameter; for zone of inhibition at 2 µg/disc: Acinetobacter baumannii, read-out: diameter of the growth inhibition, Sus. A.b. Isolate
[6] = system: Acinetobacter Baumannii multidrug-resistant strain (MDR A.b. Isolate); assay: Disk diffusion assay, multidrug-resistant strain; set-up: key to diameter of the growth inhibition, MDR A.b. Isolate: A: no detectable inhibition; B: 6-10 mm; C: 11-15 mm; D: ≧16; details: 2 μg of compound per disc, disc 6 mm in diameter
[7] = P. aeruginosa PAO1, 22 hours at 37° C., MTT

Row | Structure (SMILES) | MIC [1] [µg/mL] | MIC [2] [µg/mL] | MIC ([3]; PAO1, 22 h) [µg/mL] | MIC [4] [µg/mL] | other results
1 | C[C@@H](O)[C@H](NC(=O)c1ccc(C#CC#Cc2cccnc2)cc1)C(=O)NO [CPD-038, (2S,3R)-2-{4′-[(pyridin-3″-yl]buta-1′,3′-diynyl]benzamido}-1,3-dihydroxybutanamide] |  |  |  |  | MIC E. coli W3110 [1]: A (key: A: <1 μg/mL; B: 1-10 μg/mL; C: 11-50 μg/mL; D: 51-100 μg/mL; E: >100 μg/mL); MIC E. coli W3110RL [2]: D (51-100 μg/mL); MIC P. aeruginosa (PAO1) [3, 7]: A (<1 μg/mL); MIC E. coli W3110PA [4]: B (1-10 μg/mL)
2 | C[C@@H](O)[C@H](NS(=O)(=O)c1ccc(C#CC#Cc2ccc(N)cc2)cc1)C(=O)NO [CPD-039, (2S,3R)-2-({4′-[4′-(4′-aminophenyl)buta-1′,3′-diyn-1′-yl]benzene}sulfonamido)-N,3-dihydroxybutanamide] |  |  |  |  | MIC E. coli W3110 [1]: B (key: A: <1 μg/mL; B: 1-10 μg/mL; C: 11-50 μg/mL; D: 51-100 μg/mL; E: >100 μg/mL); MIC E. coli W3110RL [2]: E (>100 μg/mL); MIC P. aeruginosa (PAO1) [3, 7]: D (51-100 μg/mL); MIC E. coli W3110PA [4]: D (51-100 μg/mL)
3 | C[C@@H](O)[C@H](NC(=O)c1ccc(C#CC#Cc2ccc(N)cc2)cn1)C(=O)NO [CPD-041, (2S,3R)-2-({5-[4-(4-aminophenyl)buta-1,3-diyn-1-yl]pyridin-2-yl}formamido)-N,3-dihydroxybutanamide] | < 1 | 11 to 50 (≈ 29.1 to 132 µM) | 1 to 10 (≈ 2.64 to 26.4 µM) | 1 to 10 (≈ 2.64 to 26.4 µM) | 
4 | CC(N)C(C(=O)NO)c1c[nH]c2cc(C#CC#Cc3ccc(N)cc3)ccc12 (stereo not shown) [CPD-042, 3-amino-2-{6′-[4′-(4′-aminophenyl)buta-1′,3′-diyn-1′-yl]-1′H-indol-3′-yl}-N-hydroxybutanamide] | 1 to 10 (≈ 2.69 to 26.9 µM) | 51 to 100 (≈ 137 to 269 µM) | 51 to 100 (≈ 137 to 269 µM) | 51 to 100 (≈ 137 to 269 µM) | 
5 | Nc1ccc(C#CC#Cc2ccc(C(=O)NC3CCN(O)C3=O)cc2)cc1 (stereo not shown) [CPD-043, 4-((4-aminophenyl)buta-1,3-diynyl)-N-(1-hydroxy-2-oxopyrrolidin-3-yl)benzamide] | < 1 | 51 to 100 (≈ 142 to 278 µM) | 51 to 100 (≈ 142 to 278 µM) | 51 to 100 (≈ 142 to 278 µM) | 
6 | Nc1ccc(C#CC#Cc2ccc(C(=O)N[C@@H]3CCN(O)C3=O)cc2)cc1 [CPD-044, (R)-4-((4-aminophenyl)buta-1,3-diynyl)-N-(1-hydroxy-2-oxopyrrolidin-3-yl)benzamide] | < 1 | 51 to 100 (≈ 142 to 278 µM) | 51 to 100 (≈ 142 to 278 µM) | 51 to 100 (≈ 142 to 278 µM) | 
7 | C[C@@H](O)[C@H](NC(=O)c1ccc(C#CC#Cc2ccc(N)cc2)cc1)C(=O)NN [CPD-045, 4-((4-aminophenyl)buta-1,3-diynyl)-N-((2S,3R)-1-hydrazinyl-3-hydroxy-1-oxobutan-2-yl)benzamide] | 1 to 10 (≈ 2.66 to 26.6 µM) | 51 to 100 (≈ 135 to 266 µM) | 51 to 100 (≈ 135 to 266 µM) | 51 to 100 (≈ 135 to 266 µM) | 
8 | C[C@@H](O)[C@H](NC(=O)c1ccc(C#CC#Cc2ccc(N)cc2)cc1)C(=O)O [CPD-046, (2S,3R)-2-(4-((4-aminophenyl)buta-1,3-diynyl)benzamido)-3-hydroxybutanoic acid] | 1 to 10 (≈ 2.76 to 27.6 µM) | 51 to 100 (≈ 141 to 276 µM) | 51 to 100 (≈ 141 to 276 µM) | 51 to 100 (≈ 141 to 276 µM) | 
9 | C[C@@H](O)[C@H](NC(=O)c1ccc(C#CC#Cc2ccc(N)cc2)cc1)C(N)=O [CPD-047, N-((2S,3R)-1-amino-3-hydroxy-1-oxobutan-2-yl)-4-((4-aminophenyl)buta-1,3-diynyl)benzamide] | 1 to 10 (≈ 2.77 to 27.7 µM) | 51 to 100 (≈ 141 to 277 µM) | 51 to 100 (≈ 141 to 277 µM) | 51 to 100 (≈ 141 to 277 µM) | 
10 | CC(C)[C@@]1(NC(=O)c2ccc(C#CC#Cc3ccc(N)cc3)cc2)CCN(O)C1=O [CPD-048, (S)-4-((4-aminophenyl)buta-1,3-diynyl)-N-(1-hydroxy-3-isopropyl-2-oxopyrrolidin-3-yl)benzamide] | 1 to 10 (≈ 2.49 to 24.9 µM) | 51 to 100 (≈ 127 to 249 µM) | 51 to 100 (≈ 127 to 249 µM) | 51 to 100 (≈ 127 to 249 µM) | 
11 | Nc1ccc(C#CC#Cc2ccc(C(=O)N[C@H](C(=O)NO)[C@H](O)c3ccc(O)cc3)cc2)cc1 [CPD-049, 4-((4-aminophenyl)buta-1,3-diynyl)-N-((1R,2S)-1-hydroxy-3-(hydroxyamino)-1-(4-hydroxyphenyl)-3-oxopropan-2-yl)benzamide] | 1 to 10 (≈ 2.2 to 22 µM) | 51 to 100 (≈ 112 to 220 µM) | 11 to 50 (≈ 24.2 to 110 µM) | 51 to 100 (≈ 112 to 220 µM) | 
12 | Nc1ccc(C#CC#Cc2ccc(C(=O)N[C@H](C(=O)NO)[C@@H](O)c3ccc(O)cc3)cc2)cc1 [CPD-050, 4-((4-aminophenyl)buta-1,3-diynyl)-N-((1S,2S)-1-hydroxy-3-(hydroxyamino)-1-(4-hydroxyphenyl)-3-oxopropan-2-yl)benzamide] | < 1 | 11 to 50 (≈ 24.2 to 110 µM) | 1 to 10 (≈ 2.2 to 22 µM) | < 1 | 
13 | C[C@@](O)(c1ccc(O)cc1)C(NC(=O)c1ccc(C#CC#Cc2ccc(N)cc2)cc1)C(=O)NO (stereo partly drawn) [CPD-052, 4-((4-aminophenyl)buta-1,3-diynyl)-N-((3R)-3-hydroxy-1-(hydroxyamino)-3-(4-hydroxyphenyl)-1-oxobutan-2-yl)benzamide] | < 1 | 51 to 100 (≈ 109 to 213 µM) | 1 to 10 (≈ 2.13 to 21.3 µM) | 1 to 10 (≈ 2.13 to 21.3 µM) | 
14 | C[C@H](O)[C@H](NC(=O)c1ccc(C#CC#Cc2ccc(N)cc2)cc1)C(=O)NO [CPD-053, (2S,3S)-2-{4′-[(4″-aminophenyl)buta-1′,3′-diynyl]benzamido}-1,3-dihydroxybutanamide] | < 1 | 51 to 100 (≈ 135 to 265 µM) | < 1 | < 1 | 
15 | C[C@@H](O)[C@@H](NC(=O)c1ccc(C#CC#Cc2ccc(N)cc2)cc1)C(=O)NO [CPD-054, (2R,3R)-2-{4′-[(4″-aminophenyl)buta-1′,3′-diynyl]benzamido}-1,3-dihydroxybutanamide] | 1 to 10 (≈ 2.65 to 26.5 µM) | 51 to 100 (≈ 135 to 265 µM) | 11 to 50 (≈ 29.1 to 132 µM) | 11 to 50 (≈ 29.1 to 132 µM) | 
16 | C[C@H](O)[C@@H](NC(=O)c1ccc(C#CC#Cc2ccc(N)cc2)cc1)C(=O)NO [CPD-055, (2R,3S)-2-{4′-[(4″-aminophenyl)buta-1′,3′-diynyl]benzamido}-1,3-dihydroxybutanamide] | 1 to 10 (≈ 2.65 to 26.5 µM) | 51 to 100 (≈ 135 to 265 µM) | 11 to 50 (≈ 29.1 to 132 µM) | 11 to 50 (≈ 29.1 to 132 µM) | 
17 | Nc1ccc(C#CC#Cc2ccc(C(=O)N[C@H](C(=O)NO)[C@H](O)C(F)F)cc2)cc1 [CPD-056, 4-((4-aminophenyl)buta-1,3-diynyl)-N-((2S,3S)-4,4-difluoro-3-hydroxy-1-(hydroxyamino)-1-oxobutan-2-yl)benzamide] | < 1 | 1 to 10 (≈ 2.42 to 24.2 µM) | < 1 | < 1 | 
18 | Nc1ccc(C#CC#Cc2ccc(C(=O)N[C@H](C(=O)NO)[C@H](O)C(F)(F)F)cc2)cc1 [CPD-057, 4-((4-aminophenyl)buta-1,3-diynyl)-N-((2S,3S)-4,4,4-trifluoro-3-hydroxy-1-(hydroxyamino)-1-oxobutan-2-yl)benzamide] | < 1 | 51 to 100 (≈ 118 to 232 µM) | < 1 | < 1 | 
19 | C[C@@H](O)[C@H](NC(=O)c1ccc(C#CCOc2ccc(N)cc2)cc1)C(=O)NO [CPD-059, 4-(3-(4-aminophenoxy)prop-1-ynyl)-N-((2S,3R)-3-hydroxy-1-(hydroxyamino)-1-oxobutan-2-yl)benzamide] | 1 to 10 (≈ 2.61 to 26.1 µM) | 51 to 100 (≈ 133 to 261 µM) | 11 to 50 (≈ 28.7 to 130 µM) | 11 to 50 (≈ 28.7 to 130 µM) | 
20 | Nc1ccc(OCC#Cc2ccc(C(=O)N[C@@H]3CCN(O)C3=O)cc2)cc1 [CPD-060, (R)-4-(3-(4-aminophenoxy)prop-1-ynyl)-N-(1-hydroxy-2-oxopyrrolidin-3-yl)benzamide] | 1 to 10 (≈ 2.74 to 27.4 µM) | 51 to 100 (≈ 140 to 274 µM) | 11 to 50 (≈ 30.1 to 137 µM) | 11 to 50 (≈ 30.1 to 137 µM) | 
21 | C[C@@](O)(CF)[C@H](NC(=O)c1ccc(C#CC#Cc2ccc(N)cc2)cc1)C(=O)NO [CPD-061, 4-((4-aminophenyl)buta-1,3-diynyl)-N-((2S,3S)-4-fluoro-3-hydroxy-1-(hydroxyamino)-3-methyl-1-oxobutan-2-yl)benzamide] | < 1 | 51 to 100 (≈ 125 to 244 µM) | 1 to 10 (≈ 2.44 to 24.4 µM) | 1 to 10 (≈ 2.44 to 24.4 µM) | 
22 | C[C@](O)(c1ccc(CO)cc1)[C@H](NC(=O)c1ccc(C#CC#Cc2ccc(N)cc2)cc1)C(=O)NO [CPD-062, 4-((4-aminophenyl)buta-1,3-diynyl)-N-((2S,3S)-3-hydroxy-1-(hydroxyamino)-3-(4-(hydroxymethyl)phenyl)-1-oxobutan-2-yl)benzamide] | < 1 | 51 to 100 (≈ 105 to 207 µM) | 1 to 10 (≈ 2.07 to 20.7 µM) | < 1 | 
23 | CC1(C)S[C@@H]2[C@H](NC(=O)C(C(=O)O)c3ccccc3)C(=O)N2[C@H]1C(=O)O (stereo partly shown) [Carbenicillin] |  |  |  |  | diameter of the growth inhibition, Sus. A.b. Isolate [5]: A; diameter of the growth inhibition, MDR A.b. Isolate [6]: A
24 | O=C(N[C@H](CO)[C@H](O)c1ccc([N+](=O)[O-])cc1)C(Cl)Cl [Chloramphenicol] |  |  |  |  | zone of inhibition at 2 µg/disc [5]: 6 to 10 mm; diameter of the growth inhibition, MDR A.b. Isolate [6]: A
25 | O=C(O)c1cn(C2CC2)c2cc(N3CCNCC3)c(F)cc2c1=O [Ciprofloxacin] |  |  |  |  | zone of inhibition at 2 µg/disc [5]: ≥ 16 mm; diameter of the growth inhibition, MDR A.b. Isolate [6]: A
26 | C[C@@H](O)[C@H]1C(=O)N2C(C(=O)O)=C(SCCN=CN)C[C@H]12 [Imipenem] |  |  |  |  | zone of inhibition at 2 µg/disc [5]: ≥ 16 mm; diameter of the growth inhibition, MDR A.b. Isolate [6]: A
27 | C[C@@H](O)[C@H](NC(=O)c1ccc(C#Cc2ccc(CN3CCOCC3)cc2)cc1)C(=O)NO [drawing 320] | < 1 | > 100 |  | < 1 | MIC [3, 7]: < 1 µg/mL

— US9738604B2, “Ethynylbenzene derivatives” (Duke University, priority 2010, dated 2017)
